This is an account of results in patent US9499550B2 (BRISTOL-MYERS SQUIBB COMPANY, priority 2012, dated 2016).

Read-outs that look alike come from different tables or passages of the source. Some results are limits rather than exact numbers.

The subject of experiment [1] is HCV genotype 1a (H77 strain) replicon in HUH-7 cells. Kind of experiment: HCV replicon luciferase reporter assay, genotype 1a. The experiment is classed as cell-based. The settings on record: Hepatitis C virus, Huh-7, 72 h, HCV genotype 1a replicon luciferase, 3 days incubation, read-out: LE_1a (EC50, range). Put shortly:
(§1)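 Replicon inhibition for both genotypes was measured as Renilla luciferase signal (EnduRen, 7.5 μM final, 2 h) after 3-day, 37° C exposure of replicon-bearing HUH-7 cells in 4% FCS DMEM, 0.5% DMSO. The 1b construct carries S1179I; the 1a H77 construct carries P1496L and S2204I. Twenty-point, 3-fold dilutions were fitted four-parametrically for EC50, and CC50 was taken from multiplexed Cell Titer-Blue.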

Experiment [2] has as its system HCV genotype 1b (Con1) replicon in HUH-7 cells. Kind of experiment: HCV replicon luciferase reporter assay, genotype 1b. The experiment is classed as cell-based. The settings on record: Hepatitis C virus, Huh-7, 72 h, HCV genotype 1b replicon luciferase, 3 days incubation, read-out: LE_1b (EC50, range). A digest of the protocol: as §1
In general terms: Replicon systems follow genome replication, usually without infectious particles.

In general, EC50 refers to the midpoint of the concentration-response curve. In the case of `COc1ccc2nc(C(F)(F)F)c(O[C@@H]3C[C@H]4C(=O)N[C@]5(C(=O)NS(=O)(=O)C6(C)CC6)C[C@H]5/C=C\CC[C@@H](C)C[C@@H](C)[C@H](NC(=O)OC(C)(C)C(F)(F)F)C(=O)N4C3)nc2c1` [Compound 4195], the EC50 in experiment [1] (GETYPE1A) and in experiment [2] (GETYPE1B) was less than 5.46 nM each time.

For `CC[C@@H]1C[C@H](C)CC/C=C\[C@@H]2C[C@@]2(C(=O)NS(=O)(=O)C2(C)CC2)NC(=O)[C@@H]2C[C@@H](Oc3ncc(OC)c4cc(OC)ccc34)CN2C(=O)[C@H]1NC(=O)OC(C)(C)C` [Compound 4196, tert-butyl (2R,6S,7R,9R,13aS,14aR,16aS,Z)-2-(4,6-dimethoxyisoquinolin-1-yloxy)-7-ethyl-9-methyl-14a-(1-methylcyclopropylsulfonylcarbamoyl)-5,16-dioxo-1,2,3,5,6,7,8,9,10,11,13a,14,14a,15,16,16a-hexadecahydrocyclopropa[e]pyrrolo[1,2-a][1,4]diazacyclopentadecin-6-ylcarbamate], the EC50 in experiment [1] and in experiment [2] was less than 5.46 nM each time.

As to `CC[C@@H]1C[C@H](C)CC/C=C\[C@@H]2C[C@@]2(C(=O)NS(=O)(=O)C2(C)CC2)NC(=O)[C@@H]2C[C@@H](Oc3ncc(OC)c4cc(OC)ccc34)CN2C(=O)[C@H]1NC(=O)OC(C)(C)C(F)(F)F` [Compound 4197], the half-maximal effective concentration (EC50) in experiment [1] (GETYPE1A) and in experiment [2] (GETYPE1B) was less than 5.46 nM in each case.

For `COc1ccc2c(Cl)cc(O[C@@H]3C[C@H]4C(=O)N[C@]5(C(=O)NS(=O)(=O)C6(CF)CC6)C[C@H]5/C=C\CC[C@@H](C)C[C@@H](C)[C@H](NC(=O)OC(C)(C)C(F)(F)F)C(=O)N4C3)nc2c1` [Compound 4200], the concentration giving a half-maximal response (EC50) in experiment [1] (GETYPE1A) was 4.82 to 103 nM; in experiment [2] (GETYPE1B), less than 5.46 nM.

Consider `CC[C@@H]1C[C@H](C)CC/C=C\[C@@H]2C[C@@]2(C(=O)NS(=O)(=O)C2(C)CC2)NC(=O)[C@@H]2C[C@@H](Oc3cnc4ccc(OC)cc4c3)CN2C(=O)[C@H]1NC(=O)OC(C)(C)C` [Compound 4201, tert-butyl (2R,6S,7R,9R,13aS,14aR,16aS,Z)-7-ethyl-2-(6-methoxyquinolin-3-yloxy)-9-methyl-14a-(1-methylcyclopropylsulfonylcarbamoyl)-5,16-dioxo-1,2,3,5,6,7,8,9,10,11,13a,14,14a,15,16,16a-hexadecahydrocyclopropa[e]pyrrolo[1,2-a][1,4]diazacyclopentadecin-6-ylcarbamate], for which the EC50 in experiment [1] and in experiment [2] was less than 5.46 nM each time.

In the case of `CC[C@@H]1C[C@H](C)CC/C=C\[C@@H]2C[C@@]2(C(=O)NS(=O)(=O)C2(CF)CC2)NC(=O)[C@@H]2C[C@@H](Oc3nccc4cc(OC)ccc34)CN2C(=O)[C@H]1NC(=O)OC(C)(C)C` [Compound 4204, tert-butyl (2R,6S,7R,9R,13aS,14aR,16aS,Z)-7-ethyl-14a-(1-(fluoromethyl)cyclopropylsulfonylcarbamoyl)-2-(6-methoxyisoquinolin-1-yloxy)-9-methyl-5,16-dioxo-1,2,3,5,6,7,8,9,10,11,13a,14,14a,15,16,16a-hexadecahydrocyclopropa[e]pyrrolo[1,2-a][1,4]diazacyclopentadecin-6-ylcarbamate], the concentration giving a half-maximal response (EC50) in experiment [1] and in experiment [2] was less than 5.46 nM each time.

For the compound `CC[C@@H]1C[C@H](C)CC/C=C\[C@@H]2C[C@@]2(C(=O)NS(=O)(=O)C2(CF)CC2)NC(=O)[C@@H]2C[C@@H](Oc3nccc4cc(OC)ccc34)CN2C(=O)[C@H]1NC(=O)OC(C)(C)C(F)(F)F` [Compound 4205], the half-maximal effective concentration (EC50) in experiment [1] (GETYPE1A) and in experiment [2] (GETYPE1B) was less than 5.46 nM each time.

With `CC[C@@H]1C[C@H](C)CC/C=C\[C@@H]2C[C@@]2(C(=O)NS(=O)(=O)C2(C)CC2)NC(=O)[C@@H]2C[C@@H](Oc3ncc(N4CCOCC4)c4cc(OC)ccc34)CN2C(=O)[C@H]1NC(=O)OC(C)(C)C(F)(F)F` [Compound 4206], the half-maximal effective concentration (EC50) in experiment [1] (GETYPE1A) and in experiment [2] (GETYPE1B) was less than 5.46 nM throughout.

Consider `CC[C@@H]1C[C@@H](C)CC/C=C\[C@@H]2C[C@@]2(C(=O)NS(=O)(=O)C2(C)CC2)NC(=O)[C@@H]2C[C@@H](Oc3ncc(N4CCOCC4)c4cc(OC)ccc34)CN2C(=O)[C@H]1NC(=O)OC(C)(C)C(F)(F)F` [Compound 4207], for which the concentration giving a half-maximal response (EC50) in experiment [1] (GETYPE1A) and in experiment [2] (GETYPE1B) was less than 5.46 nM in each case.

For the compound `CC[C@@H]1C[C@@H](C)CC/C=C\[C@@H]2C[C@@]2(C(=O)NS(=O)(=O)C2(C)CC2)NC(=O)[C@@H]2C[C@@H](Oc3ncc(OC)c4cc(OC)c(F)cc34)CN2C(=O)[C@H]1NC(=O)OC(C)(C)C(F)(F)F` [Compound 4208], the EC50 in experiment [1] (GETYPE1A) is 4.82 to 103 nM; in experiment [2] (GETYPE1B) it was less than 5.46 nM.

As for `CC[C@@H]1C[C@H](C)CC/C=C\[C@@H]2C[C@@]2(C(=O)NS(=O)(=O)C2(C)CC2)NC(=O)[C@@H]2C[C@@H](Oc3cnc4ccc(OC)cc4n3)CN2C(=O)[C@H]1NC(=O)OC(C)(C)C(F)(F)F` [Compound 4219], the concentration for a half-maximal effect (EC50) in experiment [1] (GETYPE1A) and in experiment [2] (GETYPE1B) was less than 5.46 nM in each case.

Take `COc1ccc2nc(O[C@@H]3C[C@H]4C(=O)N[C@]5(C(=O)NS(=O)(=O)C6(CF)CC6)C[C@H]5/C=C\CC[C@@H](C)C[C@@H](C)[C@H](NC(=O)OC(C)(C)C)C(=O)N4C3)c(C)nc2c1` [Compound 4221, tert-butyl (2R,6S,7R,9R,13aS,14aR,16aS,Z)-14a-(1-(fluoromethyl)cyclopropylsulfonylcarbamoyl)-2-(6-methoxy-3-methylquinoxalin-2-yloxy)-7,9-dimethyl-5,16-dioxo-1,2,3,5,6,7,8,9,10,11,13a,14,14a,15,16,16a-hexadecahydrocyclopropa[e]pyrrolo[1,2-a][1,4]diazacyclopentadecin-6-ylcarbamate]: the EC50 in experiment [1] and in experiment [2] was less than 5.46 nM throughout.

Turning to `COc1ccc2nc(C)c(O[C@@H]3C[C@H]4C(=O)N[C@]5(C(=O)NS(=O)(=O)C6(CF)CC6)C[C@H]5/C=C\CC[C@@H](C)C[C@@H](C)[C@H](NC(=O)OC(C)(C)C)C(=O)N4C3)nc2c1` [Compound 4222, tert-butyl (2R,6S,7R,9R,13aS,14aR,16aS,Z)-14a-(1-(fluoromethyl)cyclopropylsulfonylcarbamoyl)-2-(7-methoxy-3-methylquinoxalin-2-yloxy)-7,9-dimethyl-5,16-dioxo-1,2,3,5,6,7,8,9,10,11,13a,14,14a,15,16,16a-hexadecahydrocyclopropa[e]pyrrolo[1,2-a][1,4]diazacyclopentadecin-6-ylcarbamate], the concentration giving a half-maximal response (EC50) in experiment [1] and in experiment [2] was less than 5.46 nM each time.

Turning to `CC[C@@H]1C[C@H](C)CC/C=C\[C@@H]2C[C@@]2(C(=O)NS(=O)(=O)C2(C)CC2)NC(=O)[C@@H]2C[C@@H](Oc3ncc(OC4CC4)c4ccccc34)CN2C(=O)[C@H]1NC(=O)OC(C)(C)C(F)(F)F` [Compound 4223], the concentration giving a half-maximal response (EC50) in experiment [1] (GETYPE1A) and in experiment [2] (GETYPE1B) was less than 5.46 nM each time.

Take `COc1cnc(O[C@@H]2C[C@H]3C(=O)N[C@]4(C(=O)NS(=O)(=O)C5(F)CC5)C[C@H]4/C=C\CC[C@@H](C)C[C@@H](C)[C@H](NC(=O)OC(C)(C)C)C(=O)N3C2)c2ccccc12` [Compound 4224]: the EC50 in experiment [1] and in experiment [2] was less than 5.46 nM in each case.

In the case of `C[C@@H]1CC/C=C\[C@@H]2C[C@@]2(C(=O)NS(=O)(=O)C2(F)CC2)NC(=O)[C@@H]2C[C@@H](Oc3ncc(OC4CC4)c4ccccc34)CN2C(=O)[C@@H](NC(=O)OC(C)(C)C)[C@H](C)C1` [Compound 4225, tert-butyl (2R,6S,7R,9R,13aS,14aR,16aS,Z)-2-(4-cyclopropoxyisoquinolin-1-yloxy)-14a-(1-fluorocyclopropylsulfonylcarbamoyl)-7,9-dimethyl-5,16-dioxo-1,2,3,5,6,7,8,9,10,11,13a,14,14a,15,16,16a-hexadecahydrocyclopropa[e]pyrrolo[1,2-a][1,4]diazacyclopentadecin-6-ylcarbamate], the concentration giving a half-maximal response (EC50) in experiment [1] and in experiment [2] was less than 5.46 nM in each case.

As to `CCOc1cnc(O[C@@H]2C[C@H]3C(=O)N[C@]4(C(=O)NS(=O)(=O)C5(C)CC5)C[C@H]4/C=C\CC[C@@H](C)C[C@@H](CC)[C@H](NC(=O)OC(C)(C)C(F)(F)F)C(=O)N3C2)c2ccc(OC)cc12` [Compound 4227], the concentration giving a half-maximal response (EC50) in experiment [1] (GETYPE1A) and in experiment [2] (GETYPE1B) was less than 5.46 nM each time.

As to `COc1ccc2c(O[C@@H]3C[C@H]4C(=O)N[C@]5(C(=O)NS(=O)(=O)C6(C)CC6)C[C@H]5/C=C\CC[C@@H](C)C[C@@H](C)[C@H](N)C(=O)N4C3)ncc(OC)c2c1` [Compound 4228, (2R,6S,7R,9R,13aS,14aR,16aS,Z)-6-amino-2-(4,6-dimethoxyisoquinolin-1-yloxy)-7,9-dimethyl-N-(1-methylcyclopropylsulfonyl)-5,16-dioxo-1,2,3,5,6,7,8,9,10,11,13a,14,14a,15,16,16a-hexadecahydrocyclopropa[e]pyrrolo[1,2-a][1,4]diazacyclopentadecine-14a-carboxamide], the half-maximal effective concentration (EC50) in experiment [1] and in experiment [2] was less than 5.46 nM in each case.

Turning to `COc1ccc2c(O[C@@H]3C[C@H]4C(=O)N[C@]5(C(=O)NS(=O)(=O)C6CC6)C[C@H]5/C=C\CC[C@H](C)C[C@@H](C)[C@H](NC(=O)OC(C)(C)C(F)(F)F)C(=O)N4C3)ncc(OC)c2c1` [Compound 4229], the EC50 in experiment [1] (GETYPE1A) and in experiment [2] (GETYPE1B) was less than 5.46 nM each time.

As for `CCOc1cnc(O[C@@H]2C[C@H]3C(=O)N[C@]4(C(=O)NS(=O)(=O)C5(C)CC5)C[C@H]4/C=C\CC[C@H](C)C[C@@H](C)[C@H](NC(=O)OC(C)(C)C(F)(F)F)C(=O)N3C2)c2ccc(OC)cc12` [Compound 4230], the concentration for a half-maximal effect (EC50) in experiment [1] (GETYPE1A) and in experiment [2] (GETYPE1B) was less than 5.46 nM each time.

Regarding `C=COc1cnc(O[C@@H]2C[C@H]3C(=O)N[C@]4(C(=O)NS(=O)(=O)C5(C)CC5)C[C@H]4/C=C\CC[C@@H](C)C[C@@H](C)[C@H](NC(=O)OC(C)(C)C(F)(F)F)C(=O)N3C2)c2ccc(OC)cc12` [Compound 4231], the EC50 in experiment [1] (GETYPE1A) and in experiment [2] (GETYPE1B) was less than 5.46 nM each time.
